In the NIST ThermoML archive (doi:10.1016/j.fluid.2014.04.002):

Test: xn = mol fraction of the nth substance listed
Conditions: 101 kPa, Liquid; for viscosity: Concentric cylinders viscometry; for mass density: Vibrating tube method

CCOC(=O)C(C)O (stereo not drawn) [DL-ethyl lactate] + OCCCO
Conditions	mass density, 308.15 K [kg/m3]	mass density, 313.15 K [kg/m3]	mass density, 318.15 K [kg/m3]	mass density, 323.15 K [kg/m3]	viscosity, 308.15 K [mPa·s]	viscosity, 313.15 K [mPa·s]	viscosity, 318.15 K [mPa·s]	viscosity, 323.15 K [mPa·s]
x1 = 0.1001	1042.68	1039.25	1035.8	1032.33	20.61	16.9	14	11.78
x1 = 0.2001	1041.16	1037.46	1033.74	1030	15.81	13.04	10.86	9.189
x1 = 0.3	1039.07	1035.13	1031.16	1027.16	11.84	9.826	8.236	7.027
x1 = 0.3998	1036.66	1032.52	1028.33	1024.09	8.791	7.365	6.232	5.361
x1 = 0.4996	1034.3	1029.86	1025.39	1020.89	6.65	5.624	4.805	4.174
x1 = 0.5997	1031.42	1026.75	1022.05	1017.32	5.009	4.28	3.691	3.235
x1 = 0.7	1028.37	1023.48	1018.55	1013.6	3.833	3.308	2.883	2.551
x1 = 0.8	1024.96	1019.84	1014.69	1009.51	2.944	2.57	2.263	2.023
x1 = 0.8997	1021.54	1016.22	1010.87	1005.5	2.329	2.056	1.83	1.648
x1 = 1	1017.42	1011.9	1006.36	1000.79	1.858	1.658	1.491	1.349
